Source: patent publication US20130210852A1, “METHODS FOR TREATING INFECTION” (priority 2010, published 2013)
Converted amounts (≈) assume the structure as drawn.

Assays:
[1] = system: EAEC strain O42 adherence to HEp-2 cells; assay: HEp-2 cell attachment assay (microscopy after Wright-Giemsa staining); assay type: cell-based, human
[2] = system: EAEC adherence with dialyzed conditioned medium of HEp-2 cells; assay: Effect of dialyzed HEp-2 supernatants on EAEC adherence; assay type: cell-based, human; parameters: dose or concentration left out as unconfirmed; settings: HEp-2 treated 24 h, supernatant dialyzed; chambers with or without HEp-2 cells, 3 h
Experimental: HEp-2 cells were cultured in T-175 flasks as described above. […] After 24 h, the medium was collected, loaded into regenerated cellulose dialysis tubing (cutoff, 6 to 8 kDa; Spectra/Por, Rancho Domiguez, Calif.), and dialyzed against 4 liters of PBS changed four times. Each dialysis step lasted at least 6 h and was carried out at 4° C. Dialyzed supernatants were either used immediately in adherence assays or stored at −20° C. until use.
The effect of supernatants on EAEC adherence was determined by mixing EAEC with the dialyzed media from the different antibiotic (or control) treatment groups and adding the bacteria to HEp-2 cells cultured in chambered slides or to chambered slides with no HEp-2 cells. Adherence was visualized microscopically as described above.

HEp-2 cells = assay: Cytokine arrays of HEp-2 supernatants (Panomics); settings: antibiotic 64 μg/ml, 24 h
C difficile = assay: Susceptibility testing of C difficile isolates (rifaximin agar dilution, rifampin E strips)

In the case of `CO[C@H]1/C=C/O[C@@]2(C)Oc3c(C)c(O)c4c(O)c(c(/C=N/N5CCN(C)CC5)c(O)c4c3C2=O)NC(=O)/C(C)=C\C=C\[C@H](C)[C@H](O)[C@@H](C)[C@@H](O)[C@@H](C)[C@H](OC(C)=O)[C@@H]1C` [Rifampin], the “EAEC O42 adherence to HEp-2 cells (microscopy)” value [1] is reported as “adhered in the traditional stacked-brick formation”, the “EAEC adherence after mixing with dialyzed supernatants of antibiotic-treated HEp-2 cells” value [2] is reported as “adhered to chambers independently of the presence of HEp-2 cells” and the “cytokine profile of HEp-2 supernatants” value (HEp-2 cells) is reported as “had the same profile, except that MIP5 was not detected”. For the same compound, the “MIC50 against C difficile” value (C difficile; 359 isolates) was under 2 ng/mL, the “MIC90 against C difficile” value (C difficile; 359 isolates) was 4000 ng/mL (≈ 4860 nM) and the “MIC50 against C difficile” value (C difficile; 359 isolates, listed as rifampin) was under 2 ng/mL. The “Isolates resistant to rifampin (n = 28), (%)” value (“Isolates resistant … (%)” below) (C difficile; genotype A +, B +, BT +, tcdC-del +) was “(7) %”, the “Isolates resistant … (%)” value (C difficile; genotype A +, B +, BT +, tcdC-del −) was “(14) %” and the “Isolates resistant … (%)” value (C difficile; genotype A +, B +, BT −, tcdC-del +) was “(18) %”. The “Isolates resistant … (%)” value (C difficile; genotype A +, B +, BT −, tcdC-del −) was “(46) %” and the “Isolates resistant … (%)” value (C difficile; genotype A −, B −, BT −, tcdC-del −) was “(14) %”.
